Assay [1] concerns the target T1, human sodium channels Nav 1.8 (Homo sapiens, UniProt Q9Y5Y9).
T1 construct: expressed in transfected cells
Kind of assay: Automated whole-cell voltage-clamp (ScreenPatch 384P) sodium current block, Nav 1.8. In kind it is cell-based. The note with it: CHO cells stably expressing human Nav 1.8; inactivation step -40 mV for 8 seconds, test step 10 mV (TP1A); exposure at least five minutes; room temperature; mean if two or more assays; read-out: Nav1.8 IC50. In outline: (§1)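 CHO cells stably expressing human Nav1.7 or Nav1.8 were recorded by automated whole-cell clamp with ≥5 min compound exposure, eight concentrations, at room temperature, pH 7.4 external. From -100 mV, cells were held at -40 mV for 8 s, then -100 mV for 20 ms, then a test pulse at 10 mV (Nav1.8) or 0 mV (Nav1.7), at 0.05 Hz. Peak current % block was fitted to give IC50, averaged across assays.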

Assay [2] has as its target T2, human sodium channels Nav 1.7 (Homo sapiens, UniProt Q15858).
T2 construct: expressed in transfected cells
The assay can be described thus: Automated whole-cell voltage-clamp (ScreenPatch 384P) sodium current block, Nav 1.7. Conditions: CHO cells stably expressing human Nav 1.7; inactivation step -40 mV for 8 seconds, test step 0 mV (TP1A); exposure at least five minutes; room temperature; mean if two or more assays; read-out: Nav1.7 IC50. In kind it is cell-based. The gist of the method: as §1

T1 sequence (Q9Y5Y9 whole entry): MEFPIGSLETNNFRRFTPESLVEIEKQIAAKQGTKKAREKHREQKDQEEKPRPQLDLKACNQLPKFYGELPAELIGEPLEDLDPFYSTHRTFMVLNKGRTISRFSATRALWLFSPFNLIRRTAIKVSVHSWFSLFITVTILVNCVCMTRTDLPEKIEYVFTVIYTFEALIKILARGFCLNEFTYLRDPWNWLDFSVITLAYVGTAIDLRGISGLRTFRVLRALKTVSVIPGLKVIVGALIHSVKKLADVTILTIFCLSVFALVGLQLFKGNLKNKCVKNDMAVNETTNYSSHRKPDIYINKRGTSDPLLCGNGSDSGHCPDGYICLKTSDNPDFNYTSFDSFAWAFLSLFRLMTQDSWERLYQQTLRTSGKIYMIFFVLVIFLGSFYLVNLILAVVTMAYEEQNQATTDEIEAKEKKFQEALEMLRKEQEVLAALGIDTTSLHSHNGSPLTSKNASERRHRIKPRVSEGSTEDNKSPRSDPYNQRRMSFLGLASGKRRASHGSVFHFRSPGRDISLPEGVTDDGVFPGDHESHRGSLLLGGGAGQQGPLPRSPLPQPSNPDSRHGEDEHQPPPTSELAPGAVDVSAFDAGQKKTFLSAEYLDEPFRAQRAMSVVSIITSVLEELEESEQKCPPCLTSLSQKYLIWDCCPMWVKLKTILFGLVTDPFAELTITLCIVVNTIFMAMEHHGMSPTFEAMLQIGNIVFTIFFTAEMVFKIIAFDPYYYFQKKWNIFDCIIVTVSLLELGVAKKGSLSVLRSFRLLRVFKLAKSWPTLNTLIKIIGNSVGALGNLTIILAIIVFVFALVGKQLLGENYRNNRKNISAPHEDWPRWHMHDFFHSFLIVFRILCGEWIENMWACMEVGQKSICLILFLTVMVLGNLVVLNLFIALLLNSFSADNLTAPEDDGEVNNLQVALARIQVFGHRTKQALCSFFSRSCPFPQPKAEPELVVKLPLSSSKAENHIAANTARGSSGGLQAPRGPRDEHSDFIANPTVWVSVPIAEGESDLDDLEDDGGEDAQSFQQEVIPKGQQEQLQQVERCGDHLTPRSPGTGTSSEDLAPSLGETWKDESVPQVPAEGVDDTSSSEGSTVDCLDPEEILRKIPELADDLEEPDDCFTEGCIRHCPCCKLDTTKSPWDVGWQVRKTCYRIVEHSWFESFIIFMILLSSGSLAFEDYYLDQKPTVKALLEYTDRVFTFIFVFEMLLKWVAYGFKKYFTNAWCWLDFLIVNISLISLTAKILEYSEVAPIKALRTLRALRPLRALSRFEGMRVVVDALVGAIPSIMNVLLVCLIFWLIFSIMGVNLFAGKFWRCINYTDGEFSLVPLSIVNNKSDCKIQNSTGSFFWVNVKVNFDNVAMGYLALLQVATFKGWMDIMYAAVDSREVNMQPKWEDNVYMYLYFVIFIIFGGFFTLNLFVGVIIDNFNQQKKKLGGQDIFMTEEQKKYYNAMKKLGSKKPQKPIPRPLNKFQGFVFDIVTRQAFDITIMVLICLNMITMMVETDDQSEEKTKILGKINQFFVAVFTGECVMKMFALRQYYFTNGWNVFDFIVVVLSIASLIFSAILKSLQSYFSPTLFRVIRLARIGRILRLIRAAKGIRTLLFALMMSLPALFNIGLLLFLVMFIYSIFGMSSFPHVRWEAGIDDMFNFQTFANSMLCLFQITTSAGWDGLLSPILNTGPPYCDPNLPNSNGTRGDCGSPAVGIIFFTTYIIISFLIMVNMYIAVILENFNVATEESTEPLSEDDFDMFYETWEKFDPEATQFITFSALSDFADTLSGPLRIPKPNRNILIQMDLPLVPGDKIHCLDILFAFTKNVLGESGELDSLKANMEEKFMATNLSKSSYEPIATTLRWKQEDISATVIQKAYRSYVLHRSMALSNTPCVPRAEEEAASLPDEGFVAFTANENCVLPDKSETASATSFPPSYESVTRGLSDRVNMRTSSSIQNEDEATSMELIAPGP
T2 sequence (Q15858 whole entry): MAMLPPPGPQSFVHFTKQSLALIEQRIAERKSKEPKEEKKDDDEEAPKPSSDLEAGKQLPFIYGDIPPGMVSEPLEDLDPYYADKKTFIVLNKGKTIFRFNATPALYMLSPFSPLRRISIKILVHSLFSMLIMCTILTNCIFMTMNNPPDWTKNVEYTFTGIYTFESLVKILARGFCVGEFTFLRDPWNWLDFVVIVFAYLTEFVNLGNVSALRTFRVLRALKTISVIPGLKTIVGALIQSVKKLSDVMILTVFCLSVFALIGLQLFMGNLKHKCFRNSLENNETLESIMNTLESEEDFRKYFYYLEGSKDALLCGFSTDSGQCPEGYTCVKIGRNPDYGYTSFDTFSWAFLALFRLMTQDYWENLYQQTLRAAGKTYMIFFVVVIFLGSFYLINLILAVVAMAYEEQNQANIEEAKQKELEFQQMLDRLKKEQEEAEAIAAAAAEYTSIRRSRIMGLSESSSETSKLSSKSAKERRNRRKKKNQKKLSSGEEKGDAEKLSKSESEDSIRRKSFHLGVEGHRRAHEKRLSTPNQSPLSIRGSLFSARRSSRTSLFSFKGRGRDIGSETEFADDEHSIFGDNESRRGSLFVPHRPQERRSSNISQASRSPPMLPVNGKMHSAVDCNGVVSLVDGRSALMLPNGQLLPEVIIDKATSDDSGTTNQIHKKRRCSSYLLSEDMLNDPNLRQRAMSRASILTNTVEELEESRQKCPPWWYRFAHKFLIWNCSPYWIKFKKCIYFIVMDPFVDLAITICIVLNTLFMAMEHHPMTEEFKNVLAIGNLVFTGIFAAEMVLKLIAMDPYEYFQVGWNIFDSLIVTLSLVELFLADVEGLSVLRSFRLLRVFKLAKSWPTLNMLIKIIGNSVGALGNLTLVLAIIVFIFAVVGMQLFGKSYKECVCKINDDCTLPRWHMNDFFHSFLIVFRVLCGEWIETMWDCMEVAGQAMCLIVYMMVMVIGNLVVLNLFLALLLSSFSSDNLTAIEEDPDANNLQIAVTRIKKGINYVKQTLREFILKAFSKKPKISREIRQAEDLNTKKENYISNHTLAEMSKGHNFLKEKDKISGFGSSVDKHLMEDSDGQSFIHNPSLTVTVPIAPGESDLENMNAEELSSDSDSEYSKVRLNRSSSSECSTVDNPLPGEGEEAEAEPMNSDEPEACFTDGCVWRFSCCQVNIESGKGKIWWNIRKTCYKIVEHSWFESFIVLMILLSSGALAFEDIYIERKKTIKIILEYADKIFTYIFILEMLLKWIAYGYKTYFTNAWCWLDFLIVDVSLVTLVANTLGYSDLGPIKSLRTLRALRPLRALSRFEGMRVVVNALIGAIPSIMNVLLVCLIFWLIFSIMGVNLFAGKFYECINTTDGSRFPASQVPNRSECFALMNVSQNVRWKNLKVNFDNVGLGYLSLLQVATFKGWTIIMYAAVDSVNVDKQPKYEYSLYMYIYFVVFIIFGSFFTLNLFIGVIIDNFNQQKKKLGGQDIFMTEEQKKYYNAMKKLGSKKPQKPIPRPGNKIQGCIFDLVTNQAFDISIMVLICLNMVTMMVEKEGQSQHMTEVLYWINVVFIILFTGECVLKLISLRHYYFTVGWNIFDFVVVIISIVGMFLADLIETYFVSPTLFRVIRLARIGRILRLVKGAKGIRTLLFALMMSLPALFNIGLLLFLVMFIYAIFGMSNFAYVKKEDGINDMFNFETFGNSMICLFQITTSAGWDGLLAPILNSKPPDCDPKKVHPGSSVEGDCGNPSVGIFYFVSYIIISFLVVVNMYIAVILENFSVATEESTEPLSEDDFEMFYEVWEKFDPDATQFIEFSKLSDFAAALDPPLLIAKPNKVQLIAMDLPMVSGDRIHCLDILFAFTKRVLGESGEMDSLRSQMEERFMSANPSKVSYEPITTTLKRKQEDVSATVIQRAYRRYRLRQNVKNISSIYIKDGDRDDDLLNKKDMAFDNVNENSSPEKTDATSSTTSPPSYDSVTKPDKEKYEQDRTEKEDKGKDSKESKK

In the case of `CCOc1ccc(-c2cnc(F)c(C(=O)NOCc3cc(OC)ccc3F)n2)cn1` [Compound 105], the IC50 is 500 to 1000 nM in assay [1] and more than 1000 nM in assay [2].

As to `CCOc1ccc(-c2cccc(C(=O)NOCc3cc(OC)ccc3F)n2)cn1` [Compound 106], the IC50 in assay [1] and in assay [2] was more than 1000 nM in each case.

As for `CCOc1ccc(-c2cccc(C(=O)NOCc3cc(OC)cnc3F)n2)cn1` [Compound 107], the IC50 in assay [1] and in assay [2] was more than 1000 nM in each case.

As to `CCOc1ccc(-c2cncc(C(=O)NOCc3cc(OC)ccc3F)c2)cn1` [Compound 108], the IC50 in assay [1] and in assay [2] was more than 1000 nM each time.

`CCOc1ccc(-c2nccc(C(=O)NOCc3cc(OC)ccc3F)n2)cn1` [Compound 109]: the IC50 was less than 500 nM in assay [1] and more than 1000 nM in assay [2].

For the compound `CCOc1ccc(-c2nccc(C(=O)NOCc3cc(OC)cnc3F)n2)cn1` [Compound 110], the IC50 is less than 500 nM in assay [1] and 500 to 1000 nM in assay [2].

As to `CCOc1ccc(-c2nc(O)cc(C(=O)NOCc3cc(OC)ccc3F)n2)cc1` [Compound 112], the IC50 in assay [1] is less than 500 nM; in assay [2], more than 1000 nM.

Regarding `CCOc1ccc(-c2cc(O)nc(C(=O)NOCc3cc(OC)ccc3F)n2)cc1` [Compound 113], the values for the IC50 in assay [1] and in assay [2] were less than 500 nM and more than 1000 nM, respectively.

On to `COc1cnc(F)c(CONC(=O)c2cccc(-c3ccc(OC(F)F)nc3)n2)c1` [Compound 114], for which the values for the IC50 in assay [1] and in assay [2] were 500 to 1000 nM and more than 1000 nM, respectively.

For the compound `COc1ccc(F)c(CONC(=O)c2cccc(-c3ccc(OC(F)F)nc3)n2)c1` [Compound 115], the IC50 in assay [1] and in assay [2] was more than 1000 nM in each case.

`COc1ccc(F)c(CONC(=O)c2cncc(-c3ccc(OC(F)F)nc3)c2)c1` [Compound 116]: the IC50 was less than 500 nM in assay [1] and more than 1000 nM in assay [2].

Turning to `COc1cnc(F)c(CONC(=O)c2ccnc(-c3ccc(OC(F)F)nc3)n2)c1` [Compound 117], the IC50 in assay [1] and in assay [2] was more than 1000 nM throughout.

For the compound `COc1ccc(F)c(CONC(=O)c2ccnc(-c3ccc(OC(F)F)nc3)n2)c1` [Compound 118], the IC50 is less than 500 nM in assay [1] and more than 1000 nM in assay [2].

`COc1ccc(F)c(CONC(=O)c2nccc(-c3ccc(OC(F)F)nc3)n2)c1` [Compound 119]: the IC50 in assay [1] is less than 500 nM; in assay [2], more than 1000 nM.

`COc1cnc(F)c(CONC(=O)c2nc(-c3ccc(OC(F)F)nc3)cnc2N)c1` [Compound 120]: the IC50 in assay [1] and in assay [2] was more than 1000 nM each time.

Regarding `COc1ccc(F)c(CONC(=O)c2cnc(N)c(-c3ccc(OC(F)F)nc3)n2)c1` [Compound 122], the IC50 in assay [1] and in assay [2] was more than 1000 nM each time.

Take `COc1ccc(F)c(CONC(=O)c2nc(-c3ccc(OC(F)F)nc3)cnc2F)c1` [Compound 123]: the IC50 in assay [1] and in assay [2] was more than 1000 nM in each case.

As to `COc1ccc(F)c(CONC(=O)c2cnc(F)c(-c3ccc(OC(F)F)nc3)n2)c1` [Compound 124], the IC50 in assay [1] and in assay [2] was more than 1000 nM throughout.

For orientation: IC50 means the concentration needed to halve the response being measured.
